We go through eight compounds from patent publication US20100168100A1, “QUINOLINE DERIVATIVES AS P13 KINASE INHIBITORS” (SMITHKLINE BEECHAM CORPORATION, priority 2007, published 2010).

The target in test [1] is T1, PI3Kα (Homo sapiens, UniProt P42336).
T1 construct: His
The test is described as follows: PI3K Alpha Leadseeker SPA Assay. Particulars: in at least one experimental run; read-out: IC50 against PI3Kα. The test is classed as biochemical. On the procedure: PI3K Alpha Leadseeker SPA Assay
Compounds of the present invention were tested according to the following assays and found as inhibitors of PI3 kinases, particularly PI3Kα. The exemplified compounds were tested and found active against PI3Kα. The IC50's ranged from about 1 nM to 10 μM.
SPA imaging beads are microspheres containing scintillant which emit light in the red region of the visible spectrum. As a result, these beads are ideally suited to use with a CCD imager such as the Viewlux. The Leadseeker beads used in this system are polystyrene beads that have been coupled with polyethyleneimine. When added to the assay mixture, the beads absorb both the substrate (PIP2) and product (PIP3). Adsorbed P^33-PIP3 will cause an increase in signal, measured as ADUs (analog to digital units). This protocol details the use of the PEI-PS Leadseeker beads for assays using His-p110/p85 PI3K alpha.
Solid compounds are typically plated with 0.1 μl of 100% DMSO in all wells (except column 6 and 18) of a 384-well, flat bottom, low volume plate (Greiner 784075). The compounds are serially diluted (3-fold in 100% DMSO) across the plate from column 1 to column 12 and column 13 to column 24 and leave column 6 and 18 containing only DMSO to yield 11 concentrations for each test compound.
The assay buffer contains MOPS (pH 6.5), CHAPS, and DTT. PI3K alpha and PIP2 (L-alpha-D-myo-Phosphatidylinositol 4,5-bisphosphate [PI(4,5)P2]3-O-phospho linked, D(+)-sn-1,2-di-O-octanoylglyceryl, CellSignals #901) are mixed and incubated in the plate with compound for 30 min prior to starting the reaction with the addition of P^33-ATP and MgCl2 (reagents added using Zoom). Enzyme-free wells (column 18) are typically done to determine the low control. PEI-PS Leadseeker beads in PBS/EDTA/CHAPS are added (by Multidrop) to quench the reaction, and the plates are allowed to incubate for at least one hour (typically overnight) before centrifugation. The signal is determined using a Viewlux detector and is then imported into curve fitting software (Activity Base) for construction of concentration response curves. The percent inhibition of activity is calculated relative to high controls (C1, 0.1 μl DMSO in column 6, rows A-P)) and low controls (C2, 5 μl of 40 uM PIP2 in buffer in column 18, rows A-P) using, 100*(1-(U1-C2)/(C1-C2)). The concentration of test compound yielding 50% inhibition is determined using the equation, y=((Vmax*x)/(K+x))+Y2, where “K” is equal to the IC50. The IC50 values are converted to pIC50 values, i.e., −log IC50 in Molar concentration.

The target of test [2] is CK2 protein kinase (Homo sapiens, UniProt P68400). Particulars: cited from earlier work.
CK2 protein kinase, sequence (P68400 whole entry): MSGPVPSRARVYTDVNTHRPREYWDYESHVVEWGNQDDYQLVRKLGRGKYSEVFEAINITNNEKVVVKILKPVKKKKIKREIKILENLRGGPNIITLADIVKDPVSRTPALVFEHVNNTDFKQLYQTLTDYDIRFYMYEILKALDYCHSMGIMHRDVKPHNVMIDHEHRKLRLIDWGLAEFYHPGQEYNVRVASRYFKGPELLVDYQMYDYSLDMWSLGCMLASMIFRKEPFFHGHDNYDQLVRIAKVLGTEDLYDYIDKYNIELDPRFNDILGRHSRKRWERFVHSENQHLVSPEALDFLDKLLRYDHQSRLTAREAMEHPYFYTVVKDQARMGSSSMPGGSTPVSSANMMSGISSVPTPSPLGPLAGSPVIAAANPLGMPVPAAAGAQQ

SMILES strings stand for the structures.

T1 sequence (P42336 whole entry): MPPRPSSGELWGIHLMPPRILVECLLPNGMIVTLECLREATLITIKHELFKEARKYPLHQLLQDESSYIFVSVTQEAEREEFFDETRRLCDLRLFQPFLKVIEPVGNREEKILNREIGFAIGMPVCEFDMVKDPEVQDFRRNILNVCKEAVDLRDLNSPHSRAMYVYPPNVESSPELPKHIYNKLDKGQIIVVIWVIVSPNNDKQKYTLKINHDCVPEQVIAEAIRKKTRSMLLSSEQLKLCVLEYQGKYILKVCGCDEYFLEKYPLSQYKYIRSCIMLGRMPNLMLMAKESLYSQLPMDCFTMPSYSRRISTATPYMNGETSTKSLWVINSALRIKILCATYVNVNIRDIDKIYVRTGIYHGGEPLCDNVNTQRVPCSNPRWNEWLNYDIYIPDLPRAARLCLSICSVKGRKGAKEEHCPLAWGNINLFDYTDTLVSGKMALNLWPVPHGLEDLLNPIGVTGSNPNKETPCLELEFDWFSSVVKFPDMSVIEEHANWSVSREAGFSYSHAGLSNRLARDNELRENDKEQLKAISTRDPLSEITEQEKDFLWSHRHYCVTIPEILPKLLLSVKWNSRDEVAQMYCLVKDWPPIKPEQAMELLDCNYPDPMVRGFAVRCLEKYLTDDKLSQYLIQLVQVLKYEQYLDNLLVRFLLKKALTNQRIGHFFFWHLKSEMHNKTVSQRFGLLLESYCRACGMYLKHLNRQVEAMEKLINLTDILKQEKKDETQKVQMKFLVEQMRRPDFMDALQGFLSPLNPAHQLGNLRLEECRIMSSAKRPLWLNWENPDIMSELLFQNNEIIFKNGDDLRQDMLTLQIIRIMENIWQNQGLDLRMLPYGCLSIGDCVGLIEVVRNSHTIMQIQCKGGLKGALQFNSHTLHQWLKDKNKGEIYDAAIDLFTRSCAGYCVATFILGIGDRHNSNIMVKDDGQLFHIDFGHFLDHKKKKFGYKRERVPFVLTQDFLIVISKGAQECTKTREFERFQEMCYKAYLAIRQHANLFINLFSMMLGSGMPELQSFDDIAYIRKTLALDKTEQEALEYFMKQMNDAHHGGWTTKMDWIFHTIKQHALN
T1 sequence (P27986 whole entry partner): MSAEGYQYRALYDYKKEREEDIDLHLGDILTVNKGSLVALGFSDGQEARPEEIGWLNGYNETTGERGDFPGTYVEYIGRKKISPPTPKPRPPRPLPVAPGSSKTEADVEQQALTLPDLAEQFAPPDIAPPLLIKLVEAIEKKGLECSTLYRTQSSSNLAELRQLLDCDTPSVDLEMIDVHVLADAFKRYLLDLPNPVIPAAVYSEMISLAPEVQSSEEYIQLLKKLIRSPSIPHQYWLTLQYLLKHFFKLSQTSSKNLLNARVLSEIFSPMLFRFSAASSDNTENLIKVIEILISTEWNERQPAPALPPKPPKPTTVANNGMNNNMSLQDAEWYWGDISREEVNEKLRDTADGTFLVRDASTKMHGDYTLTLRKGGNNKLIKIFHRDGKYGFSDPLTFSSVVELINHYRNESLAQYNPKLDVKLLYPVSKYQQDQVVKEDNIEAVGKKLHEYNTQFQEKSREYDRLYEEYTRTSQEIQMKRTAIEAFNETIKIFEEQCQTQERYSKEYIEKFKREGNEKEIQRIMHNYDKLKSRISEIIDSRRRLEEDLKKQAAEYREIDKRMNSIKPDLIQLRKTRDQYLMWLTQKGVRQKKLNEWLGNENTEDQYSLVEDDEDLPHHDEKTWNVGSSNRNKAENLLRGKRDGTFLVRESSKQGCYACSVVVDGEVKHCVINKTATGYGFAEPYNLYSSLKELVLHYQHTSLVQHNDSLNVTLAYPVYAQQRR

As to `CC1=Nc2ccc(-c3ccc4nccc(-c5ccncc5)c4c3)cc2S(=O)(=O)N1` [Example 154], in test [1], the IC50 (commonly the concentration that gives 50% inhibition) was 316 nM. For `c1cc(-c2ccnc3ccc(-c4ccc5[nH]ncc5c4)cc23)ccn1` [Example 156], the IC50 in test [1] is 79 nM. Still for that read-out and setting: the figure for `c1cc(-c2ccnc3ccc(-c4nc5ncncc5[nH]4)cc23)ccn1` [Example 224] is 1000 nM; for `O=S(=O)(Nc1cc(-c2ccc3nccc(-c4ccncc4)c3c2)c[n+]([O-])c1Cl)c1ccccc1` [Example 249] it is 1.6 nM. As for `Cc1ccccc1S(=O)(=O)Nc1cc(-c2ccc3nccc(-c4ccncc4)c3c2)cnc1Cl` [Example 252], the IC50 in test [1] amounted to 0.8 nM. Same read-out and setting: the figure for `NC(=O)Cn1cc(-c2ccnc3ccc(-c4cncc(S(=O)(=O)Nc5ccc(F)cc5F)c4)cc23)cn1` [Example 263] is 7.9 nM. Take `COc1ncc(-c2ccc3nccc(C4CCCC4)c3c2)cc1NS(=O)(=O)c1ccccc1` [Example 289]: in test [1], the IC50 came out at 2.5 nM. For `O=c1cc(N2CCOCC2)oc2c(-c3ccccc3)cccc12` [LY294002], in test [2], the IC50 was 5000 to 10000 nM.
